In the test the target is T1, human ferroportin (Homo sapiens, UniProt Q9NP59).
T1 construct: luciferase reporter (probably NanoLuc, inferred from the Nano-Glo Luciferase Assay System read-out); expressed in transfected cells; host or cells: CHO cells, stably transfected, expression induced with doxycycline
T1 sequence (Q9NP59 1-571): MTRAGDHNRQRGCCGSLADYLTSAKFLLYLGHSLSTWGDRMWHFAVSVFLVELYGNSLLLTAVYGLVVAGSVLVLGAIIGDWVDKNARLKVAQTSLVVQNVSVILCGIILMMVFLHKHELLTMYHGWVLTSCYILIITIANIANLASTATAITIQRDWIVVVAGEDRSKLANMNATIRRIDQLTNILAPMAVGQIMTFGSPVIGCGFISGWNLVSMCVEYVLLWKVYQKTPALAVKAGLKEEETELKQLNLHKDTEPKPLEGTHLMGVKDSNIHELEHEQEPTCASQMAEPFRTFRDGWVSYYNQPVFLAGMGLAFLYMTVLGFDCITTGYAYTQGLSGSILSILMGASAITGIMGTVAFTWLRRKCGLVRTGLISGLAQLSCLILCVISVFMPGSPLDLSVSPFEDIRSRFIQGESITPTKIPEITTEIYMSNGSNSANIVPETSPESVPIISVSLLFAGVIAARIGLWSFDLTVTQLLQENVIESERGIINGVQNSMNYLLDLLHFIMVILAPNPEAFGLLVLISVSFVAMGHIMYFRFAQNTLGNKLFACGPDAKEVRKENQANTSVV
Nature of the test: In-vitro ferroportin internalization assay (luciferase reporter). Format: cell-based. Particulars: average pEC50; stably-transfected CHO cell line expressing human ferroportin tagged to a luciferase reporter; 6 h incubation with test compound. As for the experimental part:
The protocol for this assay is generally as described in WO2018/128828, incorporated herein by reference in its entirety. Functional internalization of ferroportin protein was measured using a stably-transfected CHO cell line expressing the human ferroportin tagged to a luciferase reporter. Cells were plated for 24 h in the presence of ferric ammonium citrate (FAC). Ferroportin protein expression was induced with doxycycline for 24 h. The next day, the compounds were added. Test compounds were dissolved in DMSO. Cells were incubated with the test compounds for 6 h, and subsequently luciferase activity was measured using the Nano-Glo Luciferase Assay System and Glomax (Promega, Madison, Wis.). The average pEC50 was determined for the test compounds.
For orientation: In a reporter assay the amount or activity of a reporter protein is the signal.

Molecules are shown by their SMILES.

For orientation: pEC50 means the EC50 on a negative log10 scale, so that one unit is a factor of ten. A lower pEC50 goes with a large EC50. For `COc1ccnc(-c2nc3c(c(N(C)CC(=O)N[C@H]4CCC[C@H]4O)n2)CCC3)c1` (single isomer, unassigned) [Compound 171], the pEC50 is recorded as 7.2.

`COc1ccnc(-c2nc3c(c(N(C)CC(=O)N[C@H]4CCC[C@@H]4O)n2)CCC3)c1` (single isomer, unassigned) [Compound 173] came in with a pEC50 of 6.8.

For `COc1ccc(NC(=O)C(C(C)C)N(C)c2nc(-c3ccccn3)nc3c2CCC3)cn1` (single isomer, unassigned) [Compound 316], the pEC50 is on record as 7.2.

The molecule `CC(C)C(C(=O)Nc1cnn(C)c1)N(C)c1nc(-c2ccccn2)nc2c1CCC2` (single isomer, unassigned) [Compound 317] gave a pEC50 of 7.1.

`CC(C)[C@@H](C(=O)Nc1cnn(C)c1)N(C)c1nc(-c2ccccn2)nc2c1CCC2` (single isomer, unassigned) [Compound 318] displayed a negative-log EC50 (pEC50) of 7.2.

Molecule `CN(CC(=O)Nc1cccc(F)c1)c1nc(-c2ccccn2)nc2c1CCC2` [Compound 74, N-(3-fluorophenyl)-2-{methyl[2-(pyridin-2-yl)-5H,6H,7H-cyclopenta[d]pyrimidin-4-yl]amino}acetamide] returned a pEC50 of 7.5.

For the molecule `COc1ccnc(-c2nc3c(c(N(C)CC(=O)NC(C)(C)CO)n2)CCC3)c1` [Compound 136, N-(1-hydroxy-2-methylpropan-2-yl)-2-{[2-(4-methoxypyridin-2-yl)-5H,6H,7H-cyclopenta[d]pyrimidin-4-yl](methyl)amino}acetamide], the pEC50 was found to be 7.6.

On to `CN(CC(=O)NC(C)(C)C)c1nc(-c2cccnn2)nc2c1CCC2` [Compound 175, N-tert-butyl-2-{methyl[2-(pyridazin-3-yl)-5H,6H,7H-cyclopenta[d]pyrimidin-4-yl]amino}acetamide], for which the negative-log EC50 (pEC50) is under 5.0.

`COCCN(C)c1nc(-c2ccccn2)nc2sc(C)c(C)c12` [Compound 179, N-(2-methoxyethyl)-N,5,6-trimethyl-2-(pyridin-2-yl)thieno[2,3-d]pyrimidin-4-amine]: the pEC50 was determined as 6.9.

With `Cc1sc2nc(-c3ccccn3)nc(N(C)CCN3CCCC3=O)c2c1C` [Compound 180, 1-(2-{[5,6-dimethyl-2-(pyridin-2-yl)thieno[2,3-d]pyrimidin-4-yl](methyl)amino}ethyl)pyrrolidin-2-one], the pEC50 is 6.1.

In the case of `COc1ccc(NC(=O)CN(C)c2nc(-c3ccccn3)nc3sc(C)c(C)c23)cc1` [Compound 181, 2-{[5,6-dimethyl-2-(pyridin-2-yl)thieno[2,3-d]pyrimidin-4-yl](methyl)amino}-N-(4-methoxyphenyl)acetamide], the pEC50 is given as 7.2.

Turning to `Cc1sc2nc(-c3ccccn3)nc(N(C)CC(=O)Nc3ccccc3)c2c1C` [Compound 182, 2-{[5,6-dimethyl-2-(pyridin-2-yl)thieno[2,3-d]pyrimidin-4-yl](methyl)amino}-N-phenylacetamide], the pEC50 is 7.

`Cc1sc2nc(-c3ccccn3)nc(N(C)CC(=O)Nc3cccnc3)c2c1C` [Compound 183, 2-{[5,6-dimethyl-2-(pyridin-2-yl)thieno[2,3-d]pyrimidin-4-yl](methyl)amino}-N-(pyridin-3-yl)acetamide] came in with a pEC50 of 7.1.

`Cc1sc2nc(-c3ccccn3)nc(N(C)CC(=O)N(C)C)c2c1C` [Compound 184, 2-{[5,6-dimethyl-2-(pyridin-2-yl)thieno[2,3-d]pyrimidin-4-yl](methyl)amino}-N,N-dimethylacetamide]: the pEC50 was 6.9.

The molecule `CN(c1nc(-c2ccccn2)nc2c1CCC2)C1CCc2ccccc21` (stereo not shown) [Compound 185, N-(2,3-dihydro-1H-inden-1-yl)-N-methyl-2-(pyridin-2-yl)-5H,6H,7H-cyclopenta[d]pyrimidin-4-amine] gave a pEC50 of 6.3.

In the case of `O=C(O)CCCCCNc1nc(-c2ccccn2)nc2c1CCC2` [Compound 186, 6-{[2-(pyridin-2-yl)-5H,6H,7H-cyclopenta[d]pyrimidin-4-yl]amino}hexanoic acid], the pEC50 is on record as 5.3.

As to `c1ccc(-c2nc3c(c(N4CCCOC5CCCC54)n2)CCC3)nc1` (stereo not shown) [Compound 187, 2-(4-{octahydro-2H-cyclopenta[b][1,4]oxazepin-5-yl]-5H,6H,7H-cyclopenta[d]pyrimidin-2-yl)pyridine], the pEC50 is recorded as 6.8.

`CC1CCN(c2nc(-c3ccccn3)nc3c2CCC3)C1` (stereo not shown) [Compound 188, 2-[4-(3-methylpyrrolidin-1-yl)-5H,6H,7H-cyclopenta[d]pyrimidin-2-yl]pyridine] had a pEC50 of 5.7.

In turn, `OCCC1CCCCCN1c1nc(-c2ccccn2)nc2c1CCC2` (stereo not shown) [Compound 189, 2-{1-[2-(pyridin-2-yl)-5H,6H,7H-cyclopenta[d]pyrimidin-4-yl]azepan-2-yl}ethan-1-ol] returned a pEC50 of 6.7.

Turning to `O=C(NC1CCN(c2nc(-c3ccccn3)nc3scc(-c4ccccc4)c23)CC1)c1cccnc1` [Compound 191, N-{1-[5-phenyl-2-(pyridin-2-yl)thieno[2,3-d]pyrimidin-4-yl]piperidin-4-yl}pyridine-3-carboxamide], the pEC50 is recorded as 6.2.

For the molecule `Cc1sc2nc(-c3ccccn3)nc(NCCCO)c2c1-c1ccccc1` [Compound 192, 3-{[6-methyl-5-phenyl-2-(pyridin-2-yl)thieno[2,3-d]pyrimidin-4-yl]amino}propan-1-ol], the pEC50 is listed as 5.9.

`CCN(CCO)c1nc(-c2ccccn2)nc2scc(-c3ccccc3)c12` [Compound 193, 2-{ethyl[5-phenyl-2-(pyridin-2-yl)thieno[2,3-d]pyrimidin-4-yl]amino}ethan-1-ol] yielded a pEC50 of 6.4.

Molecule `CCc1cc(N2Cc3ccccc3N(C)CC2C)nc(-c2ccccn2)n1` (stereo not shown) [Compound 194, 4-[6-ethyl-2-(pyridin-2-yl)pyrimidin-4-yl]-1,3-dimethyl-2,3,4,5-tetrahydro-1H-1,4-benzodiazepine] registered a pEC50 of 6.3. The pEC50 values of the last two molecules are within 0.2 log units of each other.

The molecule `Cc1cccc(C)c1NC(=O)CN(C)c1nc(-c2ccccn2)nc(C)c1C` [Compound 195, 2-{[5,6-dimethyl-2-(pyridin-2-yl)pyrimidin-4-yl](methyl)amino}-N-(2,6-dimethylphenyl)acetamide] displayed a pEC50 of 6.5.

As to `Cc1nc(-c2ccccn2)nc(N(C)CCN(C)c2ccccc2)c1C` [Compound 196, N,5,6-trimethyl-N-{2-[methyl(phenyl)amino]ethyl}-2-(pyridin-2-yl)pyrimidin-4-amine], the pEC50 amounted to 6.7.

Consider `Cc1sc2nc(-c3ccccn3)nc(N(C)CC(C)O)c2c1-c1ccccc1` (stereo not shown) [Compound 197, 1-{methyl[6-methyl-5-phenyl-2-(pyridin-2-yl)thieno[2,3-d]pyrimidin-4-yl]amino}propan-2-ol], for which the pEC50 is reported as 6.3.

Take `CCC1COCCN1c1nc(-c2ccccn2)nc2scc(-c3ccccc3)c12` (stereo not shown) [Compound 198, 3-ethyl-4-[5-phenyl-2-(pyridin-2-yl)thieno[2,3-d]pyrimidin-4-yl]morpholine]: the pEC50 came out at 6.

In turn, `c1ccc(-c2csc3nc(-c4ccccn4)nc(N4CCN(CCN5CCCC5)CC4)c23)cc1` [Compound 199, 1-[5-phenyl-2-(pyridin-2-yl)thieno[2,3-d]pyrimidin-4-yl]-4-[2-(pyrrolidin-1-yl)ethyl]piperazine] came in with a pEC50 of 5.8.

As for `CN1CCN(c2nc(-c3ccccn3)nc3sc(-c4ccccc4)cc23)CC1` [Compound 200, 1-methyl-4-[6-phenyl-2-(pyridin-2-yl)thieno[2,3-d]pyrimidin-4-yl]piperazine], the pEC50 was determined as 5.3.

Take `CC(C#N)CN(C)c1nc(-c2ccccn2)nc2sc(-c3ccccc3)cc12` (stereo not shown) [Compound 201, 2-methyl-3-{methyl[6-phenyl-2-(pyridin-2-yl)thieno[2,3-d]pyrimidin-4-yl]amino}propanenitrile]: the pEC50 is 6.

For `CCN(CC)CCCNc1nc(-c2ccccn2)nc2scc(-c3ccccc3)c12` [Compound 202, N-[3-(diethylamino)propyl]-5-phenyl-2-(pyridin-2-yl)thieno[2,3-d]pyrimidin-4-amine], the pEC50 is recorded as 5.7.

`c1ccc(-c2csc3nc(-c4ccccn4)nc(NC4CC4)c23)cc1` [Compound 203, N-cyclopropyl-5-phenyl-2-(pyridin-2-yl)thieno[2,3-d]pyrimidin-4-amine]: the pEC50 is on record as 5.7.

`c1ccc(-c2csc3nc(-c4ccccn4)nc(N4CCC4)c23)cc1` [Compound 204, 2-[4-(azetidin-1-yl)-5-phenylthieno[2,3-d]pyrimidin-2-yl]pyridine] registered a pEC50 of 5.6.

As to `c1ccc(-c2csc3nc(-c4ccccn4)nc(N4CCCC4)c23)cc1` [Compound 205, 2-[5-phenyl-4-(pyrrolidin-1-yl)thieno[2,3-d]pyrimidin-2-yl]pyridine], the pEC50 was found to be 5.9.

These data come from US20230226074A1, “METHODS OF USE FOR PYRIMIDINES AS FERROPORTIN INHIBITORS” (Global Blood Therapeutics, Inc., priority 2020, published 2023).
